Assay results taken from patent publication US20180193287A1, “HOPS-BASED SUBSTANCE AND USE OF THE SUBSTANCE” (John I. Haas, Inc., priority 2015, published 2018).

System: acute liver damage in mice as a result of alcohol
Assay: acute liver damage in mice as a result of alcohol, liver tissue triglyceride (FIG. 3)
Type: in vivo
Conditions: alcohol by gavage 6 g/kg body weight, XN 5 mg/kg and/or IAA 25 mg/kg body weight applied simultaneously, liver removed after 12 hours, P<0.05
Procedure: A model used was acute liver damage in mice as a result of alcohol. Alcohol was applied to the mice by gavage (6 g/kg body weight). Furthermore, xanthohumol (XN; 5 mg/kg body weight), iso-alpha-acid (IAA; 25 mg/kg body weight) and a combination of xanthohumol (5 mg/kg body weight) and iso-alpha-acid (25 mg/kg body weight) were simultaneously applied in the experimental groups. After 12 hours the animals were sacrificed, the liver tissue was removed, and the triglyceride (TG) […] therein was determined. A control group of untreated mice (no-Alc) was also tested. In the “alcohol group”, a significant increase in TG can be seen in comparison with the “non-alcohol group”.
Again, the significance level is P<0.05. CTR stands for a group of alcohol-treated mice without addition of xanthohumol, iso-alpha-acid or a combination of xanthohumol and iso-alpha-acid.

Structure (SMILES) | triglyceride (TG) content of liver tissue versus alcohol group
CC(C)=CCC(=O)[C@@]1(O)C(O)=C(C(=O)CC(C)C)C(=O)C1CC=C(C)C (stereo partly drawn) [iso-alpha-acid] | does not differ significantly
COc1cc(O)c(CC=C(C)C)c(O)c1C(=O)/C=C/c1ccc(O)cc1 [xanthohumol] | does not differ significantly
